Experimental findings from ChEMBL document CHEMBL1137045, “Quinazolinone-based fungal efflux pump inhibitors. Part 1: Discovery of an (N-methylpiperazine)-containing derivative with activity in clinically relevant Candida spp” (Bioorg Med Chem Lett, 2004) are described below.

The subject of assay [1] is Nakaseomyces glabratus. Description: In vitro concentration to inhibit Candida glabrata CgCDR2 transporter gene over-expressed in Saccharomyces cerevisiae strain Y218. In kind it is functional, organism-based.
Assay [2] concerns Candida albicans. In words: In vitro concentration to inhibit Candida albicans CDR2 transporter gene over-expressed in Saccharomyces cerevisiae strain YEM171. In kind it is functional, organism-based.
The test system of assay [3] is Nakaseomyces glabratus. In words: In vitro concentration to inhibit Candida glabrata CgCDR1 transporter gene over-expressed in Saccharomyces cerevisiae strain Y170. The format is functional, organism-based.
In assay [4] the test system is Candida albicans. Description: In vitro minimum potentiation concentration required to achieve an 8-fold reduction in fluconazole MIC against Candida albicans strain YEM15 (overexpressing both CDR1 and CDR2). The format is functional.
For assay [5], the system named is Candida albicans. Description: In vitro concentration to inhibit Candida albicans CDR1 transporter gene over-expressed in Saccharomyces cerevisiae strain YEM172. In kind it is functional, organism-based.
The test system of assay [6] is Nakaseomyces glabratus. In words: In vitro minimum potentiation concentration required to achieve an 8-fold reduction in fluconazole MIC against Candida glabrata strain YEM19 (overexpressing both […]). In kind it is functional.
Assay [7] relates to Saccharomyces cerevisiae. Description: In vitro concentration required to inhibit 80% growth of Saccharomyces cerevisiae strain YEM172 (CDR1 over-expressed) after 48 h. The format is functional.
Assay [8] deals with Saccharomyces cerevisiae. In words: In vitro concentration required to inhibit 80% growth of Saccharomyces cerevisiae strain YEM171 (CDR2 over-expressed) after 48 h. In kind it is functional.
In assay [9] the test system is Saccharomyces cerevisiae. In words: In vitro concentration required to inhibit 80% growth of Saccharomyces cerevisiae strain Y218 (CgCDR2 over-expressed) after 48 h. In kind it is functional.
In assay [10] the test system is Saccharomyces cerevisiae. Description: In vitro concentration required to inhibit 80% growth of Saccharomyces cerevisiae strain YEM139 (PDR5 deleted) after 48 h. The format is functional.
The subject of assay [11] is Saccharomyces cerevisiae. Description: In vitro concentration required to inhibit 80% growth of Saccharomyces cerevisiae strain Y170 (CgCDR1 over-expressed) after 48 h. The format is functional.

≈ marks a conversion by molar mass, not a printed value.

`COc1ccc(N(C(=O)Nc2cccc(Cl)c2)C(C)c2nc3ccccc3c(=O)n2N2CCN(C)CC2)c(OC)c1` (configuration not stated): the IC50 (commonly the concentration that gives 50% inhibition) with Nakaseomyces glabratus [1] is more than 16 µg/mL; in the assay on Candida albicans [2] it was more than 16 µg/mL; with Nakaseomyces glabratus [3], 8 µg/mL (≈ 13.9 µM); in the assay with Candida albicans [5], 4 µg/mL (≈ 6.93 µM). In addition, the MPC8 is 1 µg/mL in the assay on Candida albicans [4] and 4 µg/mL with Nakaseomyces glabratus [6].

For the molecule `COc1ccc(N(Cc2nc3ccccc3c(=O)n2N2CCN(C)CC2)C(=O)Nc2cccc(Cl)c2)c(OC)c1`, the IC50 in the assay on Nakaseomyces glabratus [1] was 32 µg/mL (≈ 56.8 µM); in the assay with Candida albicans [2] it was more than 32 µg/mL; in the assay on Nakaseomyces glabratus [3], more than 32 µg/mL; in the assay with Candida albicans [5], 32 µg/mL (≈ 56.8 µM). In addition, the MPC8 in the assay with Candida albicans [4] and in the assay on Nakaseomyces glabratus [6] was 16 µg/mL in each case.

For the molecule `OC(Cn1cncn1)(Cn1cncn1)c1ccc(F)cc1F` [FLUCONAZOLE], the MIC (in general, the lowest concentration found to suppress growth) came to 128 µg/mL (≈ 418 µM) in the assay on Saccharomyces cerevisiae [7]; 8 µg/mL (≈ 26.1 µM) against Saccharomyces cerevisiae [8]; 2 µg/mL (≈ 6.53 µM) against Saccharomyces cerevisiae [9]; 0.5 µg/mL (≈ 1.63 µM) against Saccharomyces cerevisiae [10]; 128 µg/mL (≈ 418 µM) in the assay with Saccharomyces cerevisiae [11].

Regarding `CCOC(=O)CCn1c(C(C)N(C(=O)Nc2cccc(Cl)c2)c2ccc(OC)cc2OC)nc2ccccc2c1=O` (configuration not stated), the IC50 in the assay with Nakaseomyces glabratus [1] is more than 32 µg/mL; in the assay on Candida albicans [2], more than 32 µg/mL; with Nakaseomyces glabratus [3], more than 32 µg/mL; in the assay on Candida albicans [5], 0.5 µg/mL (≈ 0.863 µM). Moreover, the figures for the MPC8 with Candida albicans [4] and in the assay on Nakaseomyces glabratus [6] were 1 µg/mL and more than 32 µg/mL, respectively.

Consider `COc1ccc(N(C(=O)Nc2cccc(Cl)c2)C(C)(C)c2nc3ccccc3c(=O)n2N2CCN(C)CC2)c(OC)c1`, for which the IC50 in the assay with Nakaseomyces glabratus [1], with Candida albicans [2], with Nakaseomyces glabratus [3] and with Candida albicans [5] was more than 32 µg/mL throughout. In addition, the MPC8 in the assay on Candida albicans [4] and in the assay on Nakaseomyces glabratus [6] was more than 32 µg/mL throughout.

Take `COc1ccc(N(C(=O)Nc2cccc(Cl)c2)C(C)c2nc3ccccc3c(=O)n2Cc2ccccc2)c(OC)c1` (configuration not stated): the IC50 was more than 32 µg/mL in the assay with Nakaseomyces glabratus [1], more than 32 µg/mL in the assay with Candida albicans [2], more than 32 µg/mL with Nakaseomyces glabratus [3] and 0.12 µg/mL (≈ 0.211 µM) in the assay with Candida albicans [5]. Besides, the values for the MPC8 in the assay on Candida albicans [4] and in the assay on Nakaseomyces glabratus [6] were 0.5 µg/mL and more than 32 µg/mL, respectively.

Take `COc1ccc(N(C(=O)Nc2cccc(Cl)c2)[C@@H](C)c2nc3ccccc3c(=O)n2N2CCN(C)CC2)c(OC)c1`: the half-maximal inhibitory concentration (IC50) is more than 32 µg/mL with Nakaseomyces glabratus [1], more than 32 µg/mL in the assay on Candida albicans [2], 4 µg/mL (≈ 6.93 µM) in the assay on Nakaseomyces glabratus [3] and 2 µg/mL (≈ 3.47 µM) with Candida albicans [5]. The MPC8 in the assay with Candida albicans [4] and in the assay on Nakaseomyces glabratus [6] was 1 µg/mL throughout.

Regarding `COc1ccc(N(C(=O)Nc2cccc(Cl)c2)[C@H](C)c2nc3ccccc3c(=O)n2N2CCN(C)CC2)c(OC)c1`, the IC50 in the assay with Nakaseomyces glabratus [1], with Candida albicans [2], with Nakaseomyces glabratus [3] and with Candida albicans [5] was more than 32 µg/mL in each case. The MPC8 in the assay on Candida albicans [4] and in the assay on Nakaseomyces glabratus [6] was more than 32 µg/mL in each case.
